# According to patent publication US20250295657A1, “Methods and Compositions for Treatment of Inflammation and Inflammatory Conditions” (University of Pittsburgh - Of the Commonwealth System of …, priority 2022, published 2025):
# Columns and labels:
# NCOA7 [1] = biological target: T1, NCOA7 (Homo sapiens, UniProt Q8NI08); experiment: Initial experimental validation of top scoring virtual screening compounds; details: preliminary data
# T1 sequence (Q8NI08 1-942): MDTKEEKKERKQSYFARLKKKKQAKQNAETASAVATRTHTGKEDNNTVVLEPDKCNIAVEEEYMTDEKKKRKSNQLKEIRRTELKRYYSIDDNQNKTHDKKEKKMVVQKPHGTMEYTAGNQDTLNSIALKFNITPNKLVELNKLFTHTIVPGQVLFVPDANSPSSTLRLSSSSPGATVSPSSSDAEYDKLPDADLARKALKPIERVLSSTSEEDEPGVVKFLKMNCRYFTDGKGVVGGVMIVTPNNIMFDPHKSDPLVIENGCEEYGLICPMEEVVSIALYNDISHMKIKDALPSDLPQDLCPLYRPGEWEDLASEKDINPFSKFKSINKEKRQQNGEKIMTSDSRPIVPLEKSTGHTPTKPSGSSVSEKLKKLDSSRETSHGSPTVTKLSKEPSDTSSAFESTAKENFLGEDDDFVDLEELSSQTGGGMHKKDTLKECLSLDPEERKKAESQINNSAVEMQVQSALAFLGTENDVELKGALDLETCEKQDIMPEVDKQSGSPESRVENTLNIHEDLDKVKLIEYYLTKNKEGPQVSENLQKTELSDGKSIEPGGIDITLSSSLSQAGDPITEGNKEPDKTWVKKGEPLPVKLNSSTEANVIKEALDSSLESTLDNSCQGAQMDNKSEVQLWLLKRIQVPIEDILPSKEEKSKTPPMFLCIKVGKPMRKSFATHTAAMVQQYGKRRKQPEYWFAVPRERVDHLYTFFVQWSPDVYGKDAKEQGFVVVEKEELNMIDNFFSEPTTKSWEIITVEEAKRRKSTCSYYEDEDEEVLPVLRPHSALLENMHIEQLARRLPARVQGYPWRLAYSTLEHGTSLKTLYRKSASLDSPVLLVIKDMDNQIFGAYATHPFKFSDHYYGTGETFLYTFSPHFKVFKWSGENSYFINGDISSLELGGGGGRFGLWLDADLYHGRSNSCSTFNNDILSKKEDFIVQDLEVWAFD
# From the text: Pharmacophore modeling: Using Pharmmaker, we identified the residues involved in high affinity interactions with each molecular probe type. The residue-probe interactions were subsequently rank-ordered based on their frequency of occurrence at the druggable hot spots in multiple runs. […] The pharmacophore model contained a hydrogen bond donor and a hydrophobic feature at the isopropylamine site and hydrophobic and aromatic rings at the two benzene sites. The pharmacophore model was then screened against the ZINC and MolPort libraries using Pharmit. The MolPort library contains 67,033,884 conformers corresponding to 4,848,718 compounds, and the ZINC library contains 122,276,899 conformers of 13,127,550 compounds. Among top-scoring compounds, MolPort-004-267-958 was selected for further refinement after initial experimental validation.
# [2] = test system: BA.2 spike pseudotyped virus; type: cell-based
# coronavirus = details: mouse, in vivo
# Klebsiella pneumoniae = experiment: Mice infected with Klebsiella pneumoniae, acute lung injury; type: in vivo, mouse; details: 5 mg/kg IP daily for 3 days
# Experimental: Mice were infected with Klebsiella pneumoniae. […] (FIG. 23 (A, B)) Representative images were prepared of lung tissue sections stained with H&E after 48 hours of intratracheal infection with K. pneumoniae in mice treated with DMSO compared to 958 (5 mg/kg IP dosing daily for 3 days).
# NCOA7 [3] = experiment: IL-1β-mediated upregulation of NCOA7 in ECs; type: cell-based; details: inhibition of STAT1/2 signaling
# human PAECs = experiment: Leukocyte and monocyte adhesion to an endothelial monolayer; type: cell-based
# Experimental: Leukocyte and monocyte adhesion assays: Immune activation of the endothelium was assessed by measuring the adhesion of immune cells to an endothelial monolayer. Human PAECs were cultured until a complete monolayer was formed. Immune cells were stained with either CellTrace™ Blue or CFSE (ThermoFisher; Blue, C34568; CFSE, C34554) per the manufacturer's protocol. Between […] stained immune cells were added to each well of a six-well plate and allowed to incubate for 24 hours. Wells were then rinsed two times with PBS and subsequently fixed with 4% PFA for 15 minutes at room temperature. After fixation, the cells were rinsed once more with PBS. Fluorescent images were acquired at 4× magnification for each well. Immune cell number per image was quantified using Fiji. For the leukocyte adhesion assay, HuT 78 cutaneous T lymphocytes were used (ATCC). For the monocyte adhesion assay, THP-1 peripheral blood monocytes were used (ATCC).
# [4] = test system: chronically hypoxic mouse model; details: 10 mg/kg orotracheal, four weeks hypoxia
# VCAM1 = VCAM1 expression by RT-qPCR and immunoblot in PAECs; type: cell-based, human
# Experimental: (§1) RNA extraction and quantitative polymerase chain reaction: Cells were lysed in QIAzol Lysis Reagent (Qiagen; 79306), and RNA was extracted using the Rnaeasy Kit (Qiagen; 74004). Complementary DNA was synthesized using the High-Capacity cDNA Reverse Transcription Kit (ThermoFisher; 4368813). Quantitative real-time PCR (RT-qPCR) was performed on an Applied Biosystems QuantStudio 6 Flex Real-Time PCR instrument.
# (§2) Target gene expression was normalized to a housekeeping gene (i.e., ACTB) and fold change was calculated using the […] method. TaqMan™ Universal PCR Master Mix (ThermoFisher; 4305719) was used with TaqMan primers (Table 1). PowerUp™ SYBR^TM Green Master Mix (ThermoFisher; A25742) was used with custom designed primers (Table 2).
# Protein extraction and immunoblotting: Cells were rinsed two times with PBS before collection in RIPA buffer containing protease and phosphatase inhibitors. Protein concentration was determined using the Pierce™ BCA Protein Assay Kit (ThermoFisher; 23225). Protein lysates were separated using 4-15% Mini-PROTEAN® TGX™ Precast Protein Gels (Bio-Rad Laboratories; 4561086) and subsequently transferred onto a PVDF membrane. Membranes were blocked with 5% BSA in Tris-buffered saline with 0.1% Tween 20 (TBST) for one hour at room temperature. Primary antibodies were subsequently added and incubated at 4° C. overnight (Table 3). The next day blots were washed three times for 10 minutes each with TBST. Blots were then incubated with the appropriate secondary antibody coupled to HRP for one hour at room temperature. After another round of TBST washing, blots were visualized using Pierce ECL reagents and images were captured using the BioRad ChemiDoc XRS+.
# Application of oxysterols and bile acids: Oxysterols and bile acids were applied to human PAECs in 0.1% FBS, cell-specific media. 25-hydroxycholesterol and 7HOCA were dissolved in 100% ethanol and applied to cells at a concentration of 25 μM or 50 μM for 24 hours, respectively.
# CH25H = CH25H expression via RT-qPCR in PAECs under IL-1β; type: cell-based, human
# Experimental: as §1, §2
# [5] = biological target: ATP6V1B2-NCOA7 interactions (Homo sapiens, UniProt Q8NI08); experiment: Proximity ligation assay of ATP6V1B2-NCOA7 interactions in human PAECs; type: cell-based; details: 958ami versus DMSO
# Experimental: Proximity ligation assay: Direct interaction of NCOA7 with the V-ATPase subunit ATP6V1B2 was assessed using the Duolink® Proximity Ligation Assay (Millipore Sigma; DU092102). Human PAECs were plated in a Nunc™ Lab-Tek™ II Chamber Slide™ System (20,000 per well; ThermoFisher; 154453) and then fixed with 4% paraformaldehyde for 15 minutes. After permeabilization and blocking per the manufacturer's protocol, wells were incubated with either mouse anti-NCOA7 antibody (Santa Cruz Biotechnology; sc-393427), rabbit anti-ATP6V1B2 antibody (abcam; ab73404), both antibodies, or neither antibodies overnight at 4° C. (Table 3). Cells were then incubated with the PLUS and MINUS probes for one hour, ligated for 30 minutes, and amplified for 100 minutes at 37° C. Slides were then mounted with ProLong™ Gold Antifade Mountant with DAPI (ThermoFisher; P36935). Images were acquired on a Nikon A1 Confocal Microscope at the Center for Biologic Imaging at the University of Pittsburgh.
# [6] = test system: monocrotaline PAH rat model; details: 7.5 mg/kg i.p. for 10 days
# [7] = 25 μM for 24 hours versus ethanol
# ATP6V1B2-NCOA7 interactions, sequence (P21281 whole entry partner, one chain of several): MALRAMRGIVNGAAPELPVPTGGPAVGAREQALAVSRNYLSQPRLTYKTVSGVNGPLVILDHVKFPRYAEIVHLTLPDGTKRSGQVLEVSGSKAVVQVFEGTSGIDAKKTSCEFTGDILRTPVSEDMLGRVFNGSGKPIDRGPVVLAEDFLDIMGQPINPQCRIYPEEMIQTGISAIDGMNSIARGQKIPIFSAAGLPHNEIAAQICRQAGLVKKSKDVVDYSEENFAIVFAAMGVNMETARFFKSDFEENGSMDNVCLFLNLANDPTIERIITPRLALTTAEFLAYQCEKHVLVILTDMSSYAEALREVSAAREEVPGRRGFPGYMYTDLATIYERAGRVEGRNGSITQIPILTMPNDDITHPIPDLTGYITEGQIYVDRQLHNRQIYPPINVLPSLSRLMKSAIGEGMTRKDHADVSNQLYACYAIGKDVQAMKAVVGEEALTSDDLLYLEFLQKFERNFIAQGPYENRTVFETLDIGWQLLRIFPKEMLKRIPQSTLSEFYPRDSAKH
structure (smiles),measurement,setting,value
O=C(OCc1cc(=O)oc2cc(O)c(O)cc12)c1nn(-c2ccccc2)c(=O)c2ccccc12 [compound 958],effect on NCOA7 relative to the other predicted compounds,NCOA7 [1],activator of NCOA7
same,BA.2 spike pseudotyped virus infection,[2],decrease
same,mortality,coronavirus,significantly improved mortality
same,"proinflammatory markers (IL-1α, IL-1β, IFN-γ, VCAM1, and ICAM1) in lung tissue",coronavirus,attenuation
same,viral load in lung tissue,coronavirus,decreased viral load
same,"inflammation by ELISA on lung homogenate of IL-1β, TNF-α, and IL-6",Klebsiella pneumoniae,decreased inflammation
same,acute lung injury,Klebsiella pneumoniae; H&E after 48 hours of intratracheal infection,improvement of acute lung injury
N#CCNC(=O)c1ccc(-c2ccnc(Nc3ccc(N4CCOCC4)cc3)n2)cc1 [momelotinib],IL-1β-mediated upregulation of NCOA7,NCOA7 [3],abrogated
"CC(CCC[C@@H](C)[C@H]1CC[C@H]2[C@@H]3[C@H](O)CC4=CC(=O)CC[C@]4(C)[C@H]3CC[C@]12C)C(=O)O (stereo partly drawn) [7HOCA, 7α-hydroxy-3-oxo-4-cholestenoic acid]",adhesion of leukocytes and monocytes to a PAEC monolayer,human PAECs; 7HOCA-treated PAECs versus ethanol control,promoting adhesion
same,CD11b+ monocyte infiltration into the vascular bed,[4],enhanced
same,RVSP,[4],increased
same,VCAM1 expression in pulmonary vessels,[4],enhanced
same,pulmonary arteriolar remodeling,[4],increased
same,VCAM1 expression,VCAM1; 7HOCA 50 μM for 24 hours versus ethanol control,significantly upregulated
O=C(NCc1cc(=O)oc2cc(O)c(O)cc12)c1nn(-c2ccccc2)c(=O)c2ccccc12 [958ami],BA.2 spike pseudotyped virus infection,[2],decrease
same,EC immunoactivation as noted by immune cell adhesion to a monolayer,human PAECs; 958ami-treated PAECs versus DMSO,decreased EC immunoactivation
same,CH25H induction,CH25H,prevented induction of CH25H
same,number of amplifications per cell (ATP6V1B2-NCOA7 interactions),[5],significantly induced
same,EC immunoactivation as noted by VCAM1 expression,VCAM1; 958ami 20 μM for 24 hours versus DMSO,decreased EC immunoactivation
same,CD11b+ monocyte infiltration at the pulmonary vessel,[6],attenuation
same,CH25H expression in pulmonary vessels,[6],decreased CH25H expression
same,RVSP,[6],significant reduction
same,VCAM1 expression at the endothelium,[6],attenuation
same,pulmonary vessel muscularization,[6],decreased muscularization
same,right ventricular hypertrophy (Fulton's Index),[6],significant reduction
same,hepatic or renal toxicity,[6]; versus vehicle,neither had appreciable hepatic or renal toxicity
"C[C@H](CCCC(C)(C)O)[C@H]1CC[C@H]2[C@@H]3CC=C4C[C@@H](O)CC[C@]4(C)[C@H]3CC[C@]12C [25HC, 25-hydroxycholesterol]",immune cell adhesion to a PAEC monolayer,human PAECs; [7],enhanced immune cell adhesion
same,VCAM1 expression,VCAM1; [7],similarly upregulated VCAM1
